In publication PMC12194305, “Assessing Bioconcentration and Biotransformation of BDE-47 In Vitro: The Relevance of Bioavailable and Intracellular Concentrations” (Journal of Xenobiotics, 2025):
Values joined by “and” are separate entries in the source; they are usually repeats but may differ in a detail not shown here. Equal entries are not always repeated. Where two headings read alike, the source gives them in different places.

Legend:
[1] = parameters: method as in PMID 36264934; settings: dialysis, DMEM + 10% newborn calf serum, Cnom 5 μmol·L^−1, 1% DMSO; cited from earlier work
ZFL cells [2] = assay: Biotransformation of BDE-47 in ZFL cells (metabolites in cells and medium)
HepG2 cells = tested on: HepG2 cells; parameters: method as in PMID 37289209; settings: HepG2 cells 48 h, 20 mg·L^−1 BDE-47, calculated with estimated Cfree percentage, cited from earlier work
[3] = Experimental determination of free bioavailable concentration (Cfree,exp) in exposure medium by SPME; assay type: in vitro ADME; settings: for Cfree, exp: 24–48 h
Experimental: In parallel with the exposure experiment for the evaluation of bioaccumulation and biotransformation described in the previous sections, an experiment was performed to estimate experimentally the free bioavailable concentration (Cfree,exp) in the test medium. For this purpose, an experiment was designed to simulate the test conditions, and Cfree was determined using solid-phase microextraction (SPME), following the fiber method developed by Henneberger et al..
PDMS-coated glass microfibers (30 µm thick, 13.19 µL/m coating volume) were cut into 1.5 cm pieces and cleaned in methanol for more than 24 h prior to the experiment, with the solvent replaced at least three times. The cleaned and dried fiber was placed in a glass vial with 1 mL of sample exposure medium containing 1.8 and 2.6 mg·L^−1 BDE-47. Three replicates were prepared for each condition. A portion of the initial sample was stored at −20 °C until analysis. The vials were then sealed and incubated with rotation at 28 °C for 72 h until equilibrium of BDE-47 distribution among the fiber, medium, and binding to the predominant serum protein of the culture (Bovine serum albumin, BSA) was reached. Once at equilibrium, the fibers were extracted from the vials and desorbed with 400 µL isooctane for 24 h with rotation. Finally, the extract was analyzed by GC-MS-µECD, as described in Section 2.5. The concentration of BDE-47 in the initial sample (Cmed,0h) and in the resulting media after equilibration (Cmed,eq) was determined according to the procedure described in Section 2.5, to confirm the actual mass balance.
Since this study evaluates and discusses the behavior of BDE-47 in comparison to observations from a previous study with phenanthrene, as explained in the introduction section, the experimental Cfree of phenanthrene was also determined, as it had not been measured previously. In this case, the difference in the process was that PA fibers (36 µm thick, 16.71 µL/m coating volume) were used. Samples of 10 and 20 mg·L^−1 PHE were prepared, and the fibers and samples were incubated for 24–48 h until equilibrium was reached, and desorbed with hexane for 3 h.
To determine the free concentration, concentration in the SPME fiber (Cfiber) was first estimated using Equation (1) from the concentration measured in the desorption extract (Cdes), the desorption volume (Vdes) and the coating volume of the fiber (Vfiber). This volume was estimated according to the coating volume and the length of the fiber.(1) Cfiber=Cdes·Vdes/Vfiber
Next, Cfree,exp was determined at the time before the SPME fiber was added to the system, according to Equation (2). For this, the concentration measured in the fiber equilibrated with the medium (PDMS-BDE-47-BSA or PA-PHE-BSA), the concentration measured in the initial sample (Cmed,0h), and the partition constant of the equilibrium formed between the fiber and the medium (log DPDMS/medium; BDE-47 = 5.84 [25]; log DPA/medium; PHE = 6.69 [26]) were used.(2) Cfree=Cmed,0h·Vsample/Dfiber/medium·Cmed,0h·Vsample/Cfiber−Vfiber

ZFL cells [4] = settings: cited from earlier work; for Ratio MBM/experimental of internal concentration: ref De Oro-Carretero and Sanz-Landaluze 2024
ZFL cells [5] = tested on: ZFL cells; parameters: method as in PMID 39103099; settings: exposure to 10 mg·L^−1 PHE, previous study; cited from earlier work
[6] = partition constant PA fiber/medium; cited from earlier work
[7] = parameters: method as in PMID 39103099; settings: binding constant to BSA protein of FBS; cited from earlier work
[8] = tested on: zebrafish eleutheroembryos; parameters: method as in PMID 36705440; settings: zebrafish embryos 48 h, larvae samples; cited from earlier work

CC/C(=C(\c1ccccc1)c1ccc(OCCN(C)C)cc1)c1ccccc1 [tamoxifen]
decrease of free concentration from the initial concentration [1]: up to 50%

Oc1cc(Br)ccc1Oc1ccc(Br)cc1Br [2′-OH-BDE-28]
detection of the metabolite in ZFL cell and medium samples on exposure to BDE-47 (ZFL cells [2]; BDE-47 at 1.6 and 2.8 mg·L^−1, 24–72 h): significant and increasing concentration over time

Oc1cc(Oc2ccc(Br)cc2Br)c(Br)cc1Br [5-OH, 5-OH-BDE-47]
biotransformation ratio metabolite / BDE-47 concentration (HepG2 cells; medium samples): 0.2

Oc1c(Br)ccc(Oc2ccc(Br)cc2Br)c1Br [3-OH, 3-OH-BDE-47]
biotransformation ratio metabolite / BDE-47 concentration (HepG2 cells; medium samples): 0.13
biotransformation ratio metabolite / free bioavailable BDE-47 concentration (ZFL cells [2]; medium samples, 24 h, Cnominal BDE-47 1.6 mg·L^−1): 0.07
biotransformation ratio metabolite / free bioavailable BDE-47 concentration (ZFL cells [2]; medium samples, 24 h, Cnominal BDE-47 2.8 mg·L^−1): 0.08
biotransformation ratio metabolite / free bioavailable BDE-47 concentration (ZFL cells [2]; medium samples, 48 h, Cnominal BDE-47 1.6 mg·L^−1): 0.08
biotransformation ratio metabolite / free bioavailable BDE-47 concentration (ZFL cells [2]; medium samples, 48 h, Cnominal BDE-47 2.8 mg·L^−1): 0.08
biotransformation ratio metabolite / free bioavailable BDE-47 concentration (ZFL cells [2]; medium samples, 72 h, Cnominal BDE-47 1.6 mg·L^−1): 0.09
biotransformation ratio metabolite / free bioavailable BDE-47 concentration (ZFL cells [2]; medium samples, 72 h, Cnominal BDE-47 2.8 mg·L^−1): 0.15

c1ccc2c(c1)ccc1ccccc12 [PHE, phenanthrene]
% Cfree, exp ([3]; Cnom 10 mg·L^−1, % of total concentration): 2.4% and 2.4 ± 0.2%
Cfree, exp ([3]; Cnom 10 mg·L^−1, PA fiber): (0.22 ± 0.02) mg·L^−1
% Cfree, exp ([3]; Cnom 20 mg·L^−1, % of total concentration): 2.9% and 2.9 ± 0.2%
Cfree, exp ([3]; Cnom 20 mg·L^−1, PA fiber): (0.52 ± 0.04) mg·L^−1
Ratio MBM/experimental of internal concentration (ZFL cells [4]; 24h, 10 mg·L-1, ZFL cells): 491%
Ratio MBM/experimental of internal concentration (ZFL cells [4]; 24h, 50 mg·L-1, ZFL cells): 510%
Ratio MBM/experimental of internal concentration (ZFL cells [4]; 48h, 10 mg·L-1, ZFL cells): 532%
Ratio MBM/experimental of internal concentration (ZFL cells [4]; 48h, 50 mg·L-1, ZFL cells): 449%
Ratio MBM/experimental of internal concentration (ZFL cells [4]; 72h, 10 mg·L-1, ZFL cells): 421%
Ratio MBM/experimental of internal concentration (ZFL cells [4]; 72h, 50 mg·L-1, ZFL cells): 402%
BCFMBM (ZFL cells [4]; ZFL cells, previous study): 1656 L/kg
ratio of MBM vs. experimental Ccell (ZFL cells [4]; ZFL cells, previous study): above 100%
free concentration as % of total concentration (ZFL cells [4]; assays with ZFL cells, previous study): 1.7%
BCF48 h (ZFL cells [5]): 393 L/kg
BCFk (ZFL cells [5]): 986 L/kg
log DPA/medium [6]: 6.69
log DBSA/W [7]: 3.81

COc1cc(Oc2ccc(Br)cc2Br)c(Br)cc1Br [5-MeO, 5-MeO-BDE-47]
biotransformation ratio metabolite / BDE-47 concentration (HepG2 cells; cell samples): 0.10
biotransformation ratio metabolite / BDE-47 concentration [8]: 0.06–0.13
biotransformation ratio metabolite / free bioavailable BDE-47 concentration (ZFL cells [2]; cell samples, 24 h, Cnominal BDE-47 1.6 mg·L^−1): 0.11
biotransformation ratio metabolite / free bioavailable BDE-47 concentration (ZFL cells [2]; cell samples, 24 h, Cnominal BDE-47 2.8 mg·L^−1): 0.17
biotransformation ratio metabolite / free bioavailable BDE-47 concentration (ZFL cells [2]; cell samples, 48 h, Cnominal BDE-47 1.6 mg·L^−1): 0.12
biotransformation ratio metabolite / free bioavailable BDE-47 concentration (ZFL cells [2]; cell samples, 48 h, Cnominal BDE-47 2.8 mg·L^−1): 0.18
biotransformation ratio metabolite / free bioavailable BDE-47 concentration (ZFL cells [2]; cell samples, 72 h, Cnominal BDE-47 1.6 mg·L^−1): 0.15
biotransformation ratio metabolite / free bioavailable BDE-47 concentration (ZFL cells [2]; cell samples, 72 h, Cnominal BDE-47 2.8 mg·L^−1): 0.20
